This is an account of results in patent publication US6238689A, “Intestinal absorption of nicotine to treat nicotine responsive conditions” (Mayo Foundation for Medical Education and Research, priority 1998, dated 2001).

Where two headings read alike, the source gives them in different places.

A short description of data set [1]: Pharmacokinetics of nicotine after IV, oral and enema administration (Example 4). The procedure: Intravenous nicotine was prepared using a nicotine base, supplied as the tartrate salt (Fisher Scientific/Eastman Kodak Company, Rochester, N.Y.). Solutions for injection were made up by combining 1.5 mg nicotine base (4.44 mg tartrate salt) in 100 ml of 0.9% sterile normal saline to form a 15 mcg/mL solution. The intravenous solution was filtered through a 0.22 micron filter into a sterile container and under sterile conditions. The solution was then cultured for organisms, assayed for endotoxin, and chemically analyzed prior to infusion to assure stable nicotine concentration. These samples were then be stored in sealed vials until the time of administration.
The oral preparation was formed by dissolving 45 micrograms nicotine base/kg body weight (133.3 micrograms tartrate salt/kg body weight) in 30 ml purified water.
The sorbitol was added to make the vehicle isoosmolar and the carboxymethylcellulose was used as a suspending agent.
Thirty paid human volunteers were admitted to the pharmacokinetic study after giving informed consent to a protocol approved by the institutional review board at the Mayo Clinic, Rochester, Minn. The subjects ranged in age from 21-56 and their body weights ranged from 45 to 153 Kg. All subjects were non-smokers and were healthy based on their histories, and physical examination. Subjects agreed to practice birth control during the study period. Complete blood count, chemistry group, urinalysis and pregnancy test (women only) were obtained. Subjects were excluded if they had cardiovascular disease, peripheral vascular disease, hypertension, were nursing mothers, had laboratory evidence of pregnancy, or had hepatic or renal dysfunction.
Each subject underwent 2 investigations (IV and non-IV) of 8 hours duration at least 1 week apart. During the IV visit, subjects were given a 15-30 minute infusion of the IV nicotine solution (15 mcg/Kg dose). […] On each study day, venous blood samples were drawn from an IV catheter into standard chemistry vacutainer tubes. Samples were obtained before nicotine administration and at the following time points (time=0 was defined as the point at which the nicotine infusion was started or the non-IV dose was administered): 5, 10, 15, 30, 60, 90 minutes, and 2, 3, 4, 5, 6, and 8 hours. Whole blood samples were centrifuged and plasma samples were then stored at -20 degrees Celsius until analysis. Plasma concentrations of nicotine were determined by gas chromatography/mass spectrometry as described by Baskin et al. (Clin. Chem., 31:76-80 (1991)).
For this study, the maximum plasma nicotine concentration (Cmax) and the time to reach Cmax (Tmax) were defined as the highest measured plasma concentrations and the time of the sample, respectively. The following pharmacokinetics parameters were calculated using standard equations (Gibaldi (ed.) Pharmcokinetics 2nd ed, Marcel Dekker Inc., New York 409-17 (1982)): area under the plasma nicotine concentration versus time curve (AUC), bioavailability (F), blood elimination half-life (T1/2), volume of distribution (Vdss), and blood nicotine clearance (Clb).
The computed bioavailability for each subject was used in an analysis of covariance to compare the five groups. Within subject (IV versus non-IV) variation was evaluated for each group of 6 subjects using a paired-T test. In addition, data was reviewed for gender variation.

A short description of data set [2]: Pharmacokinetics of nicotine tartrate after IV and Eudragit coated delayed release oral (DRO) capsules (Example 5). The procedure: Delayed-release Eudragit™ coated oral nicotine capsules were prepared by Tillotts Pharma AG, Ziefen, Switzerland and consisted of either 3 mg or 6 mg of nicotine (8.887 mg or 17.774 mg nicotine tartrate base salt, respectively). The nicotine salt was suspended in an excipient (a saturated polyglycolized glyceride; Gelucire™ 44/14, (supplied by Gattefosse France) (190 mg or 380 mg respectively) and filled into hard gelatine capsules (size 1). The capsules were then coated with Eudragit™ L30D. Eudragit™ L30D is a polymer which dissolves at about pH 6.8 in the ileum. The size of the capsule and the thickness of the Eudragit coating are similar to those used to deliver Asacol™ (Eudragit coated mesalamine) to the terminal ileum (Schroeder et al., NEJM, 317:1625-9 (1987)).
Delayed-release Eudragit coated oral nicotine/carbomer capsules were prepared by Tillotts Pharma. Nicotine/carbomer powder (1:50--nicotine carbomer) was coated with Eudragit™ L, S or LS. The coated powder was then formed into spherules, coated with Eudragit S and filled into hard gelatine capsules (size 1). The capsules were then coated with Eudragit™ L30D. In one example, the capsules contained 150 mg nicotine-carbomer complex, equivalent to 3 mg nicotine base.
The aim of this study was to determine nicotine tartrate pharmacokinetics after administration by: IV, and 3 mg and 6 mg Eudragit S coated delay release oral (DRO) capsules.
Each subject had 2 studies [DRO and 15 μg/kg (mean 1 mg) IV] separated by >1 week with the order (IV vs DRO first) randomly assigned. After nicotine administration, blood was obtained for 12 hours and serum nicotine was determined by gas chromatography/mass spectrometry. Plasma cotinine concentrations were determined HPLC in 2 subjects (both 6 mg) over 72 hours. Pharmacokinetic parameters determined were: maximum concentration (Cmax); time to Cmax (Tmax); area under the curve (AUC); bioavailability (F); volume of distribution (Vdss); clearance (CL); and half-life (T1/2).
Delayed-release Eudragit coated oral nicotine capsules were prepared in accordance with Example 3, Part A.
Delayed-release Eudragit coated oral nicotine/Carbopol capsules were prepared in accordance with Example 3, Part B.

A short description of data set [3]: Side effects by questionnaire versus plasma nicotine concentration (Example 4). The format is in vivo, human (healthy non-smoking volunteers). The procedure:
However, the threshold above which symptoms appeared varied from individual to individual with the nicotine concentration at which side effects first appeared ranging from 2.4 ng/mL to 9.9 ng/mL (although some subjects had nicotine concentrations of >11 ng/mL without symptoms).

Data set [4] can be described thus: Side effects after nicotine/Carbopol enema in healthy volunteers and patients with active UC (Example 6). The class given is in vivo, human. The procedure: Eight normal healthy volunteers and 8 patients with active UC were enrolled in this open label, single dose study.
The nicotine content of sample enemas was first confirmed by diluting a small volume of the contents in dilute hydrochloric acid to produce an approximate concentration of 30 ng/ml, which could then be accurately measured by our assay.
Side-effect experienced by the subjects were recorded as absent, mild, moderate or severe. Subjects were asked to report the time, nature and severity of any symptoms, at the commencement and each hour through the study, and were questioned particularly about nausea, vomiting, light-headedness, tremor, palpitations and headache. Blood pressure and pulse rate were also recorded each hour and when any symptoms occurred.

Data set [5] in a line: Side effects of nicotine delivered to the intestine versus gum and patch. The class given is in vivo, human. Conditions: absorbed through the intestinal mucosa; inventors' belief.
For data set [6] the following is noted: cited from earlier work.
For data set [7] the following is noted: oral, 45 micrograms nicotine base/kg, previous study (Benowitz et al.); cited from earlier work.
The subject of data set [8] is cutaneous inflammatory response. The conditions noted are these: transdermal delivery system; cited from earlier work.
The conditions of data set [9]: human, in vivo; cited from earlier work.
The conditions of data set [10]: statement without test; cited from earlier work.

Turning to `CN1CCCC1c1cccnc1` (stereo not shown) [nicotine], in [1] (human, plasma, iv, […]), the Tmax (commonly the time at which the peak concentration occurs) stood at 18 ± 6 min. Further, the AUC (as a rule, the area under the concentration-time curve, a measure of exposure) in [1] (human, plasma, iv, […], IV 15 mcg/kg over 15-30 min, n = 32, mean ± SD) was found to be 12 ± 5 ng·h/mL. Moreover, in data set [1] (human, plasma, po, […]), the Tmax was found to be 66 ± 6 min and the bioavailability (commonly dose-corrected exposure relative to a reference, in per cent) turned out to be 19%. In data set [1] (human, plasma, po, […], 45 mcg nicotine base/kg, n=6, analyzed on natural log scale), this molecule came in with an area under the curve (AUC) of 9 ± 5 ng·h/mL. Moreover, the “subjects with no detectable plasma levels” value in [1] (oral, 45 mcg/kg) is 2 subjects. The “time at which nicotine was first detected in plasma” value in data set [1] (oral, 45 mcg/kg, when detectable) was 30 min. Moreover, in data set [1] (pilot study, two additional subjects, enema), the “colonic absorption, dependence on patient position” value is on record as “higher plasma levels detected when subjects were allowed into a sitting position immediately after administration”. In addition, the first pass metabolism entry in data set [2] (6 mg DRO versus IV) is listed as “significant first pass metabolism”. In data set [2] (DRO route to the ileocolon), the systemic bioavailability entry is reported as “reduced systemic bioavailability of nicotine”. For the same molecule, the F in [2] (IV 15 μg/kg (mean 1 mg), n=20) was 100 ± 0%. Further, in [2] (human, in vivo, iv, […]), the Tmax is 24 ± 6 min; the Vd was 2 ± 1 L/kg; the clearance was 16.7 mL/min/kg; the half-life – broadly, how long it takes for the measured level to halve – is 60 ± 60 min. The “nicotine concentration without symptoms (some subjects)” value in [3] (plasma) is recorded as more than 11 ng/mL. Besides, the “side effects, correlation with plasma nicotine concentrations” value in [3] (questionnaire every 30 minutes) is given as “closely correlated with plasma nicotine concentrations”. The side effects observed entry in data set [3] (variable frequency) is “nausea lightheadedness, and diaphoresis”. Also, the “rise in serum nicotine” value in [4] (administration to the colon) is reported as “only modest rises in serum nicotine occur”. Moreover, the tolerability entry in data set [4] (human, in vivo) was “side effects were few and the preparation well tolerated”. For the same molecule, the “nicotine's stability” value in data set [4] (phosphate buffer added, final pH of 5.5) was “increasing nicotine's stability”. In addition, the “bioavailability, cause” value in data set [5] is recorded as “low bioavailability of nicotine absorbed through the intestinal mucosa appears to be largely due to its conversion to the major metabolite cotinine on first pass metabolism in the liver”. Moreover, in data set [6] (in vivo), the “effect on cardiovascular system” value is “increased heart rate and blood pressure resulting in greater myocardial work and oxygen requirement and coronary vasocontriction”. In addition, the “effect on platelets and blood lipids” value in data set [6] (purported) was “activate platelets and to adversely affect blood lipids”. Also, the tolerability entry in data set [7] was “well-tolerated”. For the same molecule, the “cutaneous inflammatory response to sodium lauryl sulphate and UVB radiation, and reactive hyperaemia” value in data set [8] is “suppress the cutaneous inflammatory response to sodium lauryl sulphate (irritant) and UVB radiation, as well as reactive hyperaemia following arterial occlusion”. Also, the “response of Alzheimer's and Parkinson's disease patients” value in data set [9] was “beneficial response”.
`CN1C(=O)CC[C@H]1c1cccnc1` [cotinine]: in data set [10], the “activity relative to nicotine” value was “less active metabolite than nicotine”.
